Measurements published in PMC2266582 (The Journal of General Physiology, 2005).
Read-outs that look alike come from different tables or passages of the source.

What was measured:
[1] = cited from earlier work; for Pauling crystal radii: ref Bezanilla and Armstrong, 1972, Armstrong, 2003
KcsA tetramer [2] = target: T1, KcsA tetramer (Streptomyces lividans, UniProt P0A334); experiment: Temperature dependence of KcsA tetramer monitored by SDS-PAGE; conditions: for thermal stability of KcsA tetramer: 100 mM KCl or 100 mM NaCl, heated 10 min at 60–99°C; for effect on temperature dependence of KcsA tetramer: 5 mM MgCl2 or 5 mM CaCl2 added to 100 mM choline Cl
T1 sequence (P0A334 1-160): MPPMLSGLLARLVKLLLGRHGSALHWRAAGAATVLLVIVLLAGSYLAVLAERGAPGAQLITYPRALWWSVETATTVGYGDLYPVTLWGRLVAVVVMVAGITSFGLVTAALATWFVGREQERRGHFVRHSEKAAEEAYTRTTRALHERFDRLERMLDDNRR

KcsA tetramer [3] = target: T1, KcsA tetramer; experiment: Tetramer protection titration of stabilizing cations against high temperature; format: binding; conditions: 100 mM choline Cl
KcsA tetramer [4] = target: T1, KcsA tetramer; experiment: Time course of decay of KcsA tetramer at 90°C; format: binding
KcsA tetramer [5] = target: T1, KcsA tetramer; format: binding
[6] = K0.5 (cation concentration at half-maximal stabilization), fit to Eq. 1, heated 10 min at 90°C, 10 mM Hepes-Tris pH 7.4
[7] = values determined by Pauling, ref Hille (2001)

SMILES: [Na+] [Na^+, NaCl]
- Pauling crystal radii [1]: 0.95 Å
- thermal stability of KcsA tetramer (KcsA tetramer [2]): progressively lost at temperatures >65 °C

SMILES: [Cs+] [Cs^+, CsCl]
- EC50 (KcsA tetramer [3]; [6]): 4100 ± 3500 µM
- Radius [1, 7]: 1.69 Å

SMILES: [K+] [K^+, KCl]
- EC50 (KcsA tetramer [3]; [6]): 1500 ± 2500 µM
- Pauling crystal radii [1]: 1.33 Å
- Radius [1, 7]: 1.33 Å
- thermal stability of KcsA tetramer (KcsA tetramer [2]): fully stable
- time course of tetramer denaturation (KcsA tetramer [4]; 0.1 mM K^+ added to 100 mM choline Cl, 90°C): complex slower biphasic decay
- loss of tetramer (KcsA tetramer [4]; 100 mM KCl, 30 min of incubation at 90°C): virtually no loss of tetramer

SMILES: [Tl+] [Tl^+, Tl acetate]
- EC50 (KcsA tetramer [3]; [6]): 1100 µM
- Radius [1, 7]: 1.40 Å

SMILES: C[N+](C)(C)CCO.[Cl-] [choline^+, choline Cl]
- time constant of single exponential decay of tetramer (KcsA tetramer [4]; 100 mM choline Cl, absence of K^+, 90°C): 16.5 s

SMILES: [Ba+2] [Ba^2+, BaCl2]
- EC50 (KcsA tetramer [3]; K0.5 of tetramer protection titration, heated 10 min at 90°C): 0.21 µM
- Radius [1, 7]: 1.35 Å

SMILES: [Cl-].[Cl-].[Mg+2] [Mg^2+, MgCl2]
- effect on temperature dependence of KcsA tetramer (KcsA tetramer [2]): destabilize KcsA at lower temperatures

SMILES: [Li+] [Li^+, LiCl]
- IC50 (KcsA tetramer [5]): 57000 µM

SMILES: [Rb+] [Rb^+, RbCl]
- EC50 (KcsA tetramer [3]; [6]): 1700 ± 3300 µM
- Radius [1, 7]: 1.48 Å

SMILES: [Sr+2] [Sr^2+, SrCl2]
- EC50 (KcsA tetramer [3]; K0.5 of tetramer protection titration, heated 10 min at 85°C): 11 µM
- Radius [1, 7]: 1.13 Å

SMILES: N [NH4 ^+, NH4Cl]
- Radius ([1]; estimated by a molecular graphics approach, ref Sun et al. (1997)): 1.8 Å

SMILES: [Ca+2].[Cl-].[Cl-] [Ca^2+, CaCl2]
- effect on temperature dependence of KcsA tetramer (KcsA tetramer [2]): small protective effect at temperatures >60 °C
